Marks after values point to notes of the source that are not given here.
Assays:
Assay type in all cases: physicochemical
[1] = Assay/impurities of AE14B trial batch #1 (Examples 17 and 19); details: API as dispensed
[2] = AE14B trial batch #3 assay/impurities during process (Examples 22 and 23)
[3] = Forced degradation of API, drug product emulsion and placebo (Examples 30 and 32)
Method: In this example, a forced degradation study was performed on the API, drug product emulsion, and a placebo. Only w/w % impurities are presented.
In this example, an additional forced degradation study was performed. Harsh conditions for oxidation (H2O2 concentration increased from 1% to 3%, exposure increased from 30 min to 2 hr) and conditions for photolytic degradation (exposure decreased from 24 hr to 40 min) were used in an additional forced degradation study.

[4] = Chemical analysis of AE10C Trial #1 in-process samples and finished product (Example 36); details: Dronabinol AE10C Formulation, Trial #1 samples
[5] = Oxidation 1% H2O2 0.5 hr, 1st study
[6] = Oxidation 3% H2O2 2 hr, 2nd study

## CCCCCc1cc(O)c2c(c1)OC(C)(C)[C@@H]1CCC(C)=C[C@@H]21 [API]
[1]
  Impurity CBN: 0.18 % Area
  THC % Area: 99.84 % Area
  Total impurities: 0.2 % Area
[1]; calculated using 48.4% based on the certificate of analysis
  THC Assay: 96.63* % LC
[2]; API Sample
  % Area (THC from Imp): 99.6 % Area
  % Area of Impurities: CBN: 0.18 % Area
  % Area of Impurities: RRT 0.46: <0.1 % Area
  % Area of Impurities: RRT 0.93: 0.18 % Area
  % Area of Impurities: Total: 0.4 % Area
  % w/w of Impurities: CBN: 0.15 % w/w
  % w/w of Impurities: RRT 0.46: <0.1 % w/w
  % w/w of Impurities: RRT 0.93: 0.15 % w/w
  % w/w of Impurities: Total: 0.3 % w/w
  API % w/w: 38.29 % w/w
  Assay % LC: 79.12 % LC
  Conc.: 38.29 % w/w
  Impurity CBN: 0.18 % Area
  Impurity RRT 0.93: 0.18 % Area
  Osmolarity (mOsm/L): 228 mOsm/L
  Total impurities: 0.4 % Area
  pH: 6.60
[2]; API Sample column
  Osmolarity: 228 mOsm/L
  pH: 6.60
[2]; Batch #3
  total impurities excluding late eluting excipient impurities (RRT 1.22 and later): 0.4 % area
[2]; Repeated API Sample
  API % w/w: 44.2 % w/w
  Assay % LC: 91.29 % LC
[3]; Acid 24 hr, 1st study
  % Area: 96.0 % Area
  % w/w Impurities CBN: 1.54 % w/w
  % w/w Impurities RRT 0.30: 0.08 % w/w
  % w/w Impurities RRT 0.40: 0.71 % w/w
  % w/w Impurities RRT 0.46: 0.22 % w/w
  % w/w Impurities RRT 0.49: 0.37 % w/w
  % w/w Impurities RRT 0.56: 0.18 % w/w
  % w/w Impurities RRT 0.62: 0.37 % w/w
  % w/w Impurities Total: 3.5 % w/w
  Assay % LC: 83.6 % LC
[3]; Base 24 hr, 1st study
  % Area: 95.3 % Area
  % w/w Impurities CBN: 1.19 % w/w
  % w/w Impurities RRT 0.30: 0.13 % w/w
  % w/w Impurities RRT 0.40: 1.72 % w/w
  % w/w Impurities RRT 0.46: 0.30 % w/w
  % w/w Impurities RRT 0.56: 0.42 % w/w
  % w/w Impurities RRT 0.62: 0.31 % w/w
  % w/w Impurities Total: 4.1 % w/w
  Assay % LC: 82.9 % LC
[3]; Control, 1st study
  % Area: 97.5 % Area
  % w/w Impurities CBD: 0.52 % w/w
  % w/w Impurities CBN: 1.41 % w/w
  % w/w Impurities RRT 0.46: 0.28 % w/w
  % w/w Impurities Total: 2.2 % w/w
  Assay % LC: 85.8 % LC
[3]; Control, 2nd study
  % Area: 97.4 % Area
  % w/w Impurities CBD: 0.58 % w/w
  % w/w Impurities CBN: 1.41 % w/w
  % w/w Impurities RRT 0.46: 0.26 % w/w
  % w/w Impurities Total: 2.3 % w/w
  Assay % LC: 85.8 % LC
[3]; [5]
  % Area: 97.5 % Area
  % w/w Impurities CBN: 1.27 % w/w
  % w/w Impurities RRT 0.46: 0.25 % w/w
  % w/w Impurities RRT 0.62: 0.49 % w/w
  % w/w Impurities Total: 2.0 % w/w
  Assay % LC: 78.6 % LC
[3]; [6]
  % Area: 97.0 % Area
  % w/w Impurities CBD: 0.62 % w/w
  % w/w Impurities CBN: 0.79 % w/w
  % w/w Impurities RRT 0.46: 0.29 % w/w
  % w/w Impurities RRT 0.56: 0.20 % w/w
  % w/w Impurities RRT 0.93: 0.65 % w/w
  % w/w Impurities Total: 2.6 % w/w
  Assay % LC: 83.7 % LC
[3]; Photolytic 40 min, 2nd study
  % Area: 79.1 % Area
  % w/w Impurities CBD: 8.20 % w/w
  % w/w Impurities CBN: 1.00 % w/w
  % w/w Impurities RRT 0.30: 0.07 % w/w
  % w/w Impurities RRT 0.44: 0.68 % w/w
  % w/w Impurities RRT 0.46: 1.35 % w/w
  % w/w Impurities RRT 0.52: 1.56 % w/w
  % w/w Impurities RRT 0.56: 0.17 % w/w
  % w/w Impurities RRT 0.70: 0.62 % w/w
  % w/w Impurities RRT 0.82: 0.22 % w/w
  % w/w Impurities RRT 1.35: 0.21 % w/w
  % w/w Impurities RRT 1.40: 0.21 % w/w
  % w/w Impurities RRT 1.45: 0.52 % w/w
  % w/w Impurities RRT 1.48: 0.40 % w/w
  % w/w Impurities Total: 15.2 % w/w
  Assay % LC: 57.5 % LC
[3]; Photolytic 24 hr, 1st study
  % Area: 11.3 % Area
  % w/w Impurities CBN: 6.75 % w/w
  % w/w Impurities RRT 0.39: 0.79 % w/w
  % w/w Impurities RRT 0.40: 0.66 % w/w
  % w/w Impurities RRT 0.46: 4.05 % w/w
  % w/w Impurities RRT 0.49: 2.55 % w/w
  % w/w Impurities RRT 0.62: 1.45 % w/w
  % w/w Impurities RRT 0.75: 0.25 % w/w
  % w/w Impurities RRT 0.82: 0.49 % w/w
  % w/w Impurities RRT 1.19: 0.83 % w/w
  % w/w Impurities RRT 1.45: 0.07 % w/w
  % w/w Impurities Total: 17.9 % w/w
  Assay % LC: 2.3 % LC
[3]; Stress condition Acid
  Impurity Change CBD: 2 (2: Increase in API)
  Impurity Change RRT 0.40: 2 (2: Increase in API)
  Impurity Change RRT 0.46: — (Blank cell: no effect)
  Impurity Change RRT 0.62: 2 (2: Increase in API)
  Impurity Change RRT 0.93: — (Blank cell: no effect)
[3]; Stress condition Base
  Impurity Change CBD: 2 (2: Increase in API)
  Impurity Change CBN: — (Blank cell: no effect)
  Impurity Change RRT 0.40: 2 (2: Increase in API)
  Impurity Change RRT 0.46: — (Blank cell: no effect)
  Impurity Change RRT 0.62: 2 (2: Increase in API)
  Impurity Change RRT 0.93: — (Blank cell: no effect)
[3]; Stress condition Oxidation
  Impurity Change CBD: 2 (2: Increase in API)
  Impurity Change CBN: — (Blank cell: no effect)
  Impurity Change RRT 0.40: — (Blank cell: no effect)
  Impurity Change RRT 0.46: — (Blank cell: no effect)
  Impurity Change RRT 0.62: 2 (2: Increase in API)
  Impurity Change RRT 0.93: — (Blank cell: no effect)
[3]; Stress condition Photolytic
  Impurity Change CBD: 2 (2: Increase in API)
  Impurity Change CBN: 2 (2: Increase in API)
  Impurity Change RRT 0.40: 2 (2: Increase in API)
  Impurity Change RRT 0.46: 2 (2: Increase in API)
  Impurity Change RRT 0.62: 2 (2: Increase in API)
[3]; Stress condition Thermal
  Impurity Change CBD: 2 (2: Increase in API)
  Impurity Change CBN: 2 (2: Increase in API)
  Impurity Change RRT 0.46: 2 (2: Increase in API)
[3]; Thermal 24 hr, 1st study
  % Area: 77.5 % Area
  % w/w Impurities CBD: 2.43 % w/w
  % w/w Impurities CBN: 9.03 % w/w
  % w/w Impurities RRT 0.30: 0.15 % w/w
  % w/w Impurities RRT 0.44: 0.47 % w/w
  % w/w Impurities RRT 0.46: 0.56 % w/w
  % w/w Impurities RRT 0.52: 0.40 % w/w
  % w/w Impurities RRT 0.56: 0.22 % w/w
  % w/w Impurities RRT 0.70: 0.29 % w/w
  % w/w Impurities RRT 1.19: 0.54 % w/w
  % w/w Impurities RRT 1.27: 0.26 % w/w
  % w/w Impurities RRT 1.40: 0.50 % w/w
  % w/w Impurities RRT 1.45: 0.34 % w/w
  % w/w Impurities RRT 1.48: 0.14 % w/w
  % w/w Impurities Total: 15.3 % w/w
  Assay % LC: 52.8 % LC
[3]; second study, photolytic degradation, 40 min light exposure
  Assay decrease: ~30%
[4]
  Assay % LC: 87.2 % LC
  Impurity (% Area) CBD: 0.62 % Area
  Impurity (% Area) RRT 0.46: 0.19 % Area
  Impurity (% Area) RRT 0.70: 0.52 % Area
  Impurity (% Area) Total: 1.3 % Area
  Impurity (% w/w) CBN: 0.55 % w/w
  Impurity (% w/w) RRT 0.46: 0.17 % w/w
  Impurity (% w/w) RRT 0.93: 0.46 % w/w
  Impurity (% w/w) Total: 1.2 % w/w
